Earlier results as cited in patent US20190231742A1, “NUTRITIONAL AGENTS USED TO PREVENT AND TREAT HYPERSENSITIVITY AND OTHER ALLERGIC-TYPE DISORDERS” (priority 2017, published 2019).

Assays:
[1] = Alzheimer's disease patient; increasing quantities on successive days
[2] = taken by mouth; FIG. 3
[3] = oral administration of ~20 g; raised from ≤0.2 mM

time of peak blood D-βOHB level after ingestion [1]	rise in the blood level of D-βOHB and AcAc with increasing oral amount (mg/kg body weight) [2]	water solubility	plasma D-βOHB level [3] [mM]	Structure (SMILES)
about 1 hour	increases proportionately	somewhat water soluble		CC(O)CCOC(=O)CC(C)O [KME, (R)-3-hydroybutyl (R)-3-hydroxybutyrate]
			0.5 to 0.7	CCCCCCCC(=O)OCC(COC(=O)CCCCCCC)OC(=O)CCCCCCC [tricaprylin]
